# Data reported in article PMC2481421, “Gene expression response in target organ and whole blood varies as a function of target organ injury phenotype” (Genome Biology, 2008).
# Several values for one entry are separate records, joined by “and”; a condition that tells them apart may be missing. Equal entries are not always repeated. Entries after “also recorded” stand apart in the source; their conditions may differ.
# What was measured:
# [1] = In-life observations: body weight, gross findings before and at necropsy; format: in vivo, Male Fischer 344/N rats; conditions: individual animals
# Protocol: Doses were determined with pilot experiments. […] Serum was collected for clinical chemistry.
# liver = assay: Liver histopathology (H&E sections of left liver lobe, severity graded) after a single dose; conditions: for Primary site of livery injury: rat, single administration
# Protocol: The animals were acclimated for 14 days and observed for absence of disease.
# Doses were determined with pilot experiments. For each chemical, doses that elicited a sub-toxic ('low'), a moderately toxic ('medium') or a overtly toxic ('high') response 24 hours after treatment were selected. […] For each compound, control animal groups were treated with vehicle alone. All animals were fasted for 12-18 hours prior to exposure. Groups of four to six animals were dosed between 8:30 and 9:30 a.m.; thereafter, feed was provided ad libitum. After 6, 24 or 48 hours of treatment, animals were anesthetized by isoflurane anesthesia. Whole blood was collected via retro-orbital plexus for hematology and gene expression analysis. Serum was collected for clinical chemistry. The animals were euthanized while under anesthesia by cervical dislocation and necropsied within 4 minutes of sacrifice. The left liver lobe was promptly removed and two defined cross sections were placed in 10% neutral buffered formalin for subsequent histopathology.
# The cross sections that were fixed by immersion in 10% neutral buffered formalin (see 'In-life studies' section above) were transferred to histology grade alcohol for 18-24 hours after necropsy. Tissues were then processed, embedded in paraffin, sectioned at 5 microns, and stained with hematoxylin and eosin. A pathologist completed the initial microscopic evaluation of each liver sample for a given compound. […] An independent pathology quality assessment review was performed by a second pathologist on the initial histopathological findings.
# [2] = 15 mg/kg, gavage, corn oil, 6 hours
# [3] = 15 mg/kg, gavage, corn oil, 24 hours, listed as 1, 4-Dichlorobenzene
# [4] = 15 mg/kg, gavage, corn oil, 48 hours
# [5] = 150 mg/kg, gavage, corn oil, 6 hours
# [6] = 150 mg/kg, gavage, corn oil, 24 hours, listed as 1, 4-Dichlorobenzene
# [7] = 150 mg/kg, gavage, corn oil, 48 hours
# [8] = 1500 mg/kg, gavage, corn oil, 24 hours, listed as 1, 4-Dichlorobenzene
# [9] = 1500 mg/kg, gavage, corn oil, 48 hours
# [10] = 25 mg/kg, gavage, corn oil, 6 hours
# [11] = 25 mg/kg, gavage, corn oil, 24 hours
# [12] = 25 mg/kg, gavage, corn oil, 48 hours
# [13] = 75 mg/kg, Gavage, Corn Oil, 48 hours
# [14] = 75 mg/kg, gavage, corn oil, 6 hours
# [15] = 75 mg/kg, gavage, corn oil, 24 hours
# [16] = 250 mg/kg, Gavage, Corn Oil, 48 hours
# [17] = 250 mg/kg, gavage, corn oil, 6 hours
# [18] = 250 mg/kg, gavage, corn oil, 24 hours
# [19] = medium dose, 6 hour, six animals
smiles,measurement,setting,value
"Clc1ccc(Cl)cc1 [1,4-Dichlorobenzene]",Clin/Ob Prior to Necropsy,[1]; [2],Normal
same,Gross Findings,[1]; [2],No Gross Findings
same,Clin/Ob Prior to Necropsy,"[1]; 15 mg/kg, gavage, corn oil, 24 hours",Normal
same,Final Body Wt.,[1]; [3],232.30 g and 225.40 g and 254.10 g and 277.50 g
same,Gross Findings,[1]; [3],Liver median lobe with dark area 3x5 mm; also recorded: No Gross Findings
same,Clin/Ob Prior to Necropsy,[1]; [4],Normal
same,Gross Findings,[1]; [4],No Gross Findings
same,Final Body Wt.,"[1]; 15 mg/kg, gavage, corn oil, 48 hours, listed as 1, 4-Dichlorobenzene",239.30 g and 240.50 g and 258.30 g and 262.70 g
same,Clin/Ob Prior to Necropsy,[1]; [5],Normal
same,Gross Findings,[1]; [5],No Gross Findings
same,Clin/Ob Prior to Necropsy,"[1]; 150 mg/kg, gavage, corn oil, 24 hours",Normal
same,Final Body Wt.,[1]; [6],243.60 g and 238.40 g and 164.30 g and 262.50 g
same,Gross Findings,[1]; [6],Liver median lobe mottled; Bladder calculi; also recorded: No Gross Findings
same,Clin/Ob Prior to Necropsy,[1]; [7],Normal
same,Gross Findings,[1]; [7],No Gross Findings
same,Final Body Wt.,"[1]; 150 mg/kg, gavage, corn oil, 48 hours, listed as 1, 4-Dichlorobenzene",234.10 g and 237.30 g and 264.20 g and 251.10 g
same,Clin/Ob Prior to Necropsy,"[1]; 1500 mg/kg, gavage, corn oil, 6 hours",Normal
same,Gross Findings,"[1]; 1500 mg/kg, gavage, corn oil, 6 hours, listed as 1, 4-Dichlorobenzene",Liver left and median lobes mottled; also recorded: No Gross Findings
same,Clin/Ob Prior to Necropsy,"[1]; 1500 mg/kg, gavage, corn oil, 24 hours",Normal
same,Final Body Wt.,[1]; [8],242.10 g and 248.00 g and 261.40 g and 259.70 g
same,Gross Findings,[1]; [8],No Gross Findings; also recorded: Liver median lobe mottled on dorsal side
same,Clin/Ob Prior to Necropsy,[1]; [9],Normal
same,Gross Findings,[1]; [9],No Gross Findings
same,Final Body Wt.,"[1]; 1500 mg/kg, gavage, corn oil, 48 hours, listed as 1, 4-Dichlorobenzene",237.50 g and 238.20 g and 259.90 g and 253.70 g
Brc1ccccc1 [Bromobenzene],Clin/Ob Prior to Necropsy,[1]; [10],Normal
same,Gross Findings,[1]; [10],No Gross Findings
same,Clin/Ob Prior to Necropsy,[1]; [11],Normal
same,Final Body Wt.,[1]; [11],249.50 g and 261.40 g and 229.00 g and 231.60 g
same,Gross Findings,[1]; [11],No Gross Findings
same,Clin/Ob Prior to Necropsy,[1]; [12],Normal
same,Final Body Wt.,[1]; [12],244.40 g and 235.00 g and 246.60 g and 231.60 g
same,Gross Findings,[1]; [12],No Gross Findings
same,Clin/Ob Prior to Necropsy,[1]; [13],Normal
same,Final Body Wt.,[1]; [13],236.60 g and 225.70 g and 236.40 g and 237.30 g
same,Gross Findings,[1]; [13],No Gross Findings
same,Clin/Ob Prior to Necropsy,[1]; [14],Normal
same,Gross Findings,[1]; [14],No Gross Findings; also recorded: Liver left lobe mottled
same,Clin/Ob Prior to Necropsy,[1]; [15],Normal
same,Final Body Wt.,[1]; [15],242.50 g and 258.00 g and 249.00 g and 228.00 g
same,Gross Findings,[1]; [15],No Gross Findings
same,Clin/Ob Prior to Necropsy,[1]; [16],Normal
same,Final Body Wt.,[1]; [16],203.70 g and 220.50 g and 212.60 g and 210.30 g
same,Gross Findings,[1]; [16],"Liver left lobe firm with mottled edges, median lobe firm with mottled edges; also recorded: Liver left lobe mild roughening of surface, median lobe mild roughening of surface"
same,Clin/Ob Prior to Necropsy,[1]; [17],Normal
same,Gross Findings,[1]; [17],No Gross Findings; also recorded: Liver left lobe and median lobe mottled
same,Clin/Ob Prior to Necropsy,[1]; [18],Ungroomed Appearance
same,Final Body Wt.,[1]; [18],214.60 g and 204.50 g and 218.70 g and 200.70 g
same,Gross Findings,[1]; [18],"Liver left lobe dark, mottled, and firm (anterior end darker), median lobe dark, mottled, and firm; also recorded: Liver left lobe mottled with dark edges, median lobe dark and mottled (left side darker)"
same,Primary site of livery injury,liver,Centrilobular
c1cc[n+]2c(c1)-c1cccc[n+]1CC2 [Diquat Dibromide],Clin/Ob Prior to Necropsy,"[1]; 5 mg/kg, I.P., PBS, 6 hours",normal
same,Gross Findings,"[1]; 5 mg/kg, I.P., PBS, 6 hours",No Gross Findings; also recorded: Liver: median lobe dark area ventral surface 3x5mm; also recorded: Liver: left lobe accentuated centrilobular pattern
same,Clin/Ob Prior to Necropsy,"[1]; 5 mg/kg, I.P., PBS, 24 hours",normal
same,Final Body Wt.,"[1]; 5 mg/kg, I.P., PBS, 24 hours",211.10 g and 208.50 g and 245.30 g and 233.00 g and 258.10 g and 250.90 g
same,Gross Findings,"[1]; 5 mg/kg, I.P., PBS, 24 hours","No Gross Findings; also recorded: Liver: median lobe HDN; also recorded: Liver: left lobe mottled, median lobe mottled"
same,Clin/Ob Prior to Necropsy,"[1]; 5 mg/kg, I.P., PBS, 48 hours",normal; also recorded: Piloerection
same,Final Body Wt.,"[1]; 5 mg/kg, I.P., PBS, 48 hours",224.20 g and 218.20 g and 231.10 g and 225.90 g and 257.30 g and 249.20 g
same,Gross Findings,"[1]; 5 mg/kg, I.P., PBS, 48 hours","No Gross Findings; also recorded: Liver: left lobe mottled, median lobe mottled"
same,Clin/Ob Prior to Necropsy,"[1]; 10 mg/kg, I.P., PBS, 6 hours",normal
same,Gross Findings,"[1]; 10 mg/kg, I.P., PBS, 6 hours","Liver: left lobe mottled, median lobe pale patcity area 3x5mm; also recorded: Liver: left lobe dark focus 1x1mm, median lobe mottled; also recorded: No Gross Findings"
same,Clin/Ob Prior to Necropsy,"[1]; 10 mg/kg, I.P., PBS, 24 hours",normal
same,Final Body Wt.,"[1]; 10 mg/kg, I.P., PBS, 24 hours",206.10 g and 210.20 g and 242.10 g and 224.30 g and 236.70 g and 244.40 g
same,Gross Findings,"[1]; 10 mg/kg, I.P., PBS, 24 hours","No Gross Findings; also recorded: Liver: left lobe mottled, median lobe mottled; also recorded: Liver: median lobe dorsal surface mottled; also recorded: Liver: median lobe HDN"
same,Clin/Ob Prior to Necropsy,"[1]; 10 mg/kg, I.P., PBS, 48 hours",normal
same,Final Body Wt.,"[1]; 10 mg/kg, I.P., PBS, 48 hours",220.20 g and 230.20 g and 218.20 g and 217.30 g and 243.20 g and 249.30 g
same,Gross Findings,"[1]; 10 mg/kg, I.P., PBS, 48 hours","No Gross Findings; also recorded: Liver: left lobe small, median lobe small; also recorded: Liver: left lobe mottled, median lobe mottled"
same,Clin/Ob Prior to Necropsy,"[1]; 20 mg/kg, I.P., PBS, 6 hours",normal
same,Gross Findings,"[1]; 20 mg/kg, I.P., PBS, 6 hours","Liver: left lobe mottled dark edge, median lobe mottled; also recorded: No Gross Findings"
same,Clin/Ob Prior to Necropsy,"[1]; 20 mg/kg, I.P., PBS, 24 hours",normal; also recorded: Piloerection
same,Final Body Wt.,"[1]; 20 mg/kg, I.P., PBS, 24 hours",207.30 g and 222.70 g and 236.30 g and 245.70 g and 242.80 g and 235.30 g
same,Gross Findings,"[1]; 20 mg/kg, I.P., PBS, 24 hours","Liver: left lobe mottled/pale, median lobe mottled/pale; also recorded: No Gross Findings; also recorded: Liver: median lobe dorsal surface mottled; also recorded: Liver: left lobe mottled/pale/slightly enlarged, median lobe mottled/pale/ slightly enlarged"
same,Clin/Ob Prior to Necropsy,"[1]; 20 mg/kg, I.P., PBS, 48 hours",normal; also recorded: Piloerection
same,Final Body Wt.,"[1]; 20 mg/kg, I.P., PBS, 48 hours",227.20 g and 217.30 g and 211.20 g and 231.70 g and 252.00 g and 265.20 g
same,Gross Findings,"[1]; 20 mg/kg, I.P., PBS, 48 hours","No Gross Findings; also recorded: Liver: left lobe mottled/pale, median lobe pale; also recorded: Liver: left lobe mottled/pale, median lobe mottled/pale"
same,Clin/Ob Prior to Necropsy,"[1]; 25 mg/kg, I.P., PBS, 6 hours",normal; also recorded: Piloerection; also recorded: Comatose
same,Gross Findings,"[1]; 25 mg/kg, I.P., PBS, 6 hours","No Gross Findings; also recorded: Liver: left lobe mottled dark, median lobe mottled dark"
same,Clin/Ob Prior to Necropsy,"[1]; 25 mg/kg, I.P., PBS, 24 hours",Piloerection; also recorded: normal; also recorded: Ungroomed Appearance
same,Final Body Wt.,"[1]; 25 mg/kg, I.P., PBS, 24 hours",240.50 g and 211.50 g and 223.20 g and 243.30 g and 234.60 g and 233.90 g
same,Gross Findings,"[1]; 25 mg/kg, I.P., PBS, 24 hours","No Gross Findings; also recorded: Liver: left lobe pale, one focal tan area on dorsal side 3x3mm, tan focal area on ventral side 7x5mm; median lobe pale and mottled; also recorded: Liver: left lobe dark edge; also recorded: Liver: left lobe mottled/pale/ rough surface minimal, median lobe mottled/pale/ rough surface minimal"
same,Clin/Ob Prior to Necropsy,"[1]; 25 mg/kg, I.P., PBS, 48 hours",normal; also recorded: Ungroomed Appearance; also recorded: Piloerection
same,Final Body Wt.,"[1]; 25 mg/kg, I.P., PBS, 48 hours",205.20 g and 208.20 g and 226.90 g and 212.10 g and 236.10 g and 244.10 g
same,Gross Findings,"[1]; 25 mg/kg, I.P., PBS, 48 hours","Liver: left lobe pale/small, median lobe pale/small; also recorded: Liver: left lobe pale/mottled/ rough surface slight, median lobe pale/mottled/ rough surface slight"
c1cc[n+]2c(c1)-c1cccc[n+]1CC2 [Diquat],"extent of hepatocellular necrosis, amount of inflammatory cell infiltrates and/or indications of hepatocellular repair (mitosis) across animals","liver; high dose, 48 hour",variability
same,animals with minimal levels of hepatocellular necrosis,liver; [19],one
same,animals with no apparent histopathological observations,liver; [19],Three of the six
same,animals with noted levels of glycogen depletion,liver; [19],two
same,Primary site of livery injury,liver,Mid-zonal to centrilobular
